{"source": "patent EP4817428A1", "about": "“SWEETNESS ENHANCER CONTAINING ERGOTHIONEINE AS ACTIVE INGREDIENT, AND FOOD OR BEVERAGE PRODUCT CONTAINING SAME” (Kikkoman Corporation, priority 2023, dated 2025)", "key": {"[1]": {"assay": "Test 9 (2): paired comparison test of sweetness, 50% liquid sugar sample", "type": "in vivo", "conditions": "50% liquid sugar samples", "protocol": "(§2) In the following Test 9, sensory evaluation was performed by a panel of three experts in the same paired comparison test as in Tests 3, 5, and 7.\nSamples were prepared by adding ERG to a 50% liquid sugar sample of an isomerized sugar containing 55% or more of fructose (New Fructo 55 (NF55), Showa Sangyo Co., Ltd.) to the ERG concentrations shown in Table 13 (ERG0 to 20). Pairs combining a control 50% liquid sugar sample and a 50% liquid sugar sample containing ERG at each concentration were presented, and the panel evaluated which sample of the presented pair was perceived to be sweeter by a paired comparison test."}, "[2]": {"assay": "Test 9 (6): paired comparison test of sweetness, 0.1% stevia sample", "type": "in vivo", "conditions": "0.1% stevia samples", "protocol": "as §2\nPairs combining a control 0.1% stevia sample and a 0.1% stevia sample containing ERG at each concentration were presented, and the panel evaluated which sample of the presented pair was perceived to be sweeter by a paired comparison test."}, "[3]": {"type": "in vivo", "conditions": "amazake", "procedure": "(§1) Evaluation results of sweetness of test product compared with control • ∘: Sweetness was enhanced compared to the control. • ◇: Sweetness was similar to that of the control.\n1,250 g of white rice was soaked in water overnight, transferred to a colander, and drained for 2 hours. Thereafter, the rice was wrapped in a Tetoron cloth and steamed at 100°C for 40 minutes. The steamed rice was cooled to 45°C, and a seed koji was inoculated. The rice was wrapped in a Pylen cloth, and koji-making was started under the conditions of 35°C and 95% humidity. 19 hours after the start of koji-making, the rice koji was loosened and wrapped again in the Pylen cloth. When the product temperature reached 40°C, the Pylen cloth was spread and the rice koji was leveled. After another 40 hours, the rice koji was well loosened and left to stand again. After 42 hours, the koji was taken out. […]\nThe sweetness of the amazake was sensorially evaluated by an expert panel consisting of five trained sweetness-sensitive subjects.\nPairs combining amazake containing ERG at different concentrations shown in Table 19 (ERG12 to 345) were presented to the expert panel of five, and the panelists evaluated which sample of the presented pair was perceived to be sweeter by a paired comparison test."}, "[4]": {"type": "in vivo", "conditions": "50% glucose solution", "procedure": "as §1\nSamples ERG0 to 900 were prepared by adding ergothioneine to 50% glucose samples to final concentrations of 0.5 ppm, 1 ppm, 3 ppm, 5 ppm, 10 ppm, 20 ppm, 60 ppm, 100 ppm, 400 ppm, and 900 ppm (Table 4).\nPairs combining a control 50% glucose sample to which ergothioneine was not added and a 50% glucose sample containing ergothioneine at each concentration were presented to the expert panel of four, and the panel evaluated which sample of the presented pair was perceived to be sweeter by a paired comparison test."}, "[5]": {"assay": "Test 9 (5): paired comparison test of sweetness, 10% aspartame sample", "type": "in vivo", "conditions": "10% aspartame samples", "protocol": "as §2\nSamples were prepared by adding ERG to a 10% aspartame sample of aspartame (Pal Sweet Slim Up Sugar, Ajinomoto Co., Inc.) to the ERG concentrations shown in Table 16 (ERG0 to 20). Pairs combining a control 10% aspartame sample and a 10% aspartame sample containing ERG at each concentration were presented, and the panel evaluated which sample of the presented pair was perceived to be sweeter by a paired comparison test."}, "[6]": {"type": "in vivo", "procedure": "Samples were prepared by adding ergothioneine to 1% to 50% sucrose solutions to final concentrations of 0 ppm, 0.05 ppm, 0.1 ppm, 0.25 ppm, and 0.5 ppm (ERG0 to 0.5 in Table 1 below; hereinafter, \"ERGX\" means a sample to which X ppm of ERG is added).\nA drinking test by an expert panel of four, different from those in Tests 1 and 2, was conducted on 1% to 50% sucrose samples to which ERG was added at each concentration (the concentration was not disclosed to the panel), using a 1% to 50% sucrose sample to which no ergothioneine was added as a control, and sweetness was sensorially evaluated. After tasting each sample and before tasting the next sample, the mouth was completely rinsed with water at room temperature. Pairs combining the control 1% to 50% sucrose sample and the 1% to 50% sucrose sample containing ergothioneine at each concentration were presented to the expert panel, and the panel evaluated which sample of the presented pair was perceived to be sweeter by a paired comparison test.\nas §1"}, "[7]": {"type": "in vivo", "conditions": "4% sucrose", "procedure": "as §1\nSamples (ERG5 to 900) were prepared by adding ergothioneine to a 4% sucrose solution to final concentrations of 5 ppm, 20 ppm, 60 ppm, 100 ppm, 400 ppm, and 900 ppm, and a drinking test by an expert panel of four, different from those in Tests 1 and 2, was conducted on the 4% sucrose samples to which ERG was added at each concentration (the concentration was not disclosed to the panel), and sweetness was sensorially evaluated.\nPairs combining the control 4% sucrose sample of Table 3 below and the 4% sucrose sample containing ergothioneine at each concentration were presented to the expert panel, and the panel evaluated which sample of the presented pair was perceived to be sweeter by a paired comparison test."}, "[8]": {"assay": "physchem", "type": "physicochemical", "conditions": "10% (100,000 ppm) dissolved in water at 40°C, left at 4°C; ERG precipitated 1 day later; read-out: concentration at which ERG could be contained in water", "procedure": "ERG was dissolved in water at 40°C so that the ergothioneine concentration became 10% (100,000 ppm), and then left to stand at 4°C. When the solution was checked 1 day later, ERG was precipitated. From the above, the concentration at which ERG could be contained in water was less than 10%."}, "[9]": {"assay": "Test 9 (3): paired comparison test of sweetness, 50% starch syrup sample", "type": "in vivo", "conditions": "50% starch syrup samples", "protocol": "as §2\nSamples were prepared by adding ERG to a 50% starch syrup sample of a highly saccharified reduced starch syrup rich in monosaccharide alcohols and disaccharide alcohols (SE 600, Bussan Food Science Co., Ltd.) to the ERG concentrations shown in Table 14 (ERG0 to 10). Pairs combining a control 50% starch syrup sample and a 50% starch syrup sample containing ERG at each concentration were presented, and the panel evaluated which sample of the presented pair was perceived to be sweeter by a paired comparison test."}, "[10]": {"type": "in vivo", "conditions": "milk", "procedure": "as §1\nSamples of milk (EGR0.5 to 20) were prepared by adding ergothioneine to commercially available milk to final concentrations of 0.5 ppm, 1 ppm, 3 ppm, 5 ppm, 10 ppm, and 20 ppm.\nA drinking test by a panel of three experts was conducted on the milk to which ERG was added at each concentration (the concentration was not disclosed to the panel), using a milk to which no ergothioneine was added (ERG0) as a control, and the sweetness was sensorially evaluated by a paired comparison test."}, "[11]": {"type": "in vivo", "procedure": "Evaluation results of sweetness of test product compared with control • ∘: Sweetness was enhanced compared to the control. • ◇: Sweetness was similar to that of the control. […]\nA drinking test by a panel of three experts was conducted on the prepared soy milk to which ERG was added at each concentration (the concentration was not disclosed to the panel), using a prepared soy milk to which no ergothioneine was added (ERG0) as a control, and the sweetness was sensorially evaluated by a paired comparison test.", "remark": "listed apart in the source"}, "[12]": {"assay": "Test 9 (4): paired comparison test of sweetness, 50% oligosaccharide sample", "type": "in vivo", "conditions": "50% oligosaccharide samples", "protocol": "as §2\nSamples were prepared by adding ERG to a 50% oligosaccharide sample of an oligosaccharide (Fuji Oligo #450, Nihon Shokuhin Kako Co., Ltd.) to the ERG concentrations shown in Table 15 (ERG0 to 10). Pairs combining a control 50% oligosaccharide sample and a 50% oligosaccharide sample containing ERG at each concentration were presented, and the panel evaluated which sample of the presented pair was perceived to be sweeter by a paired comparison test."}, "[13]": {"conditions": "sucrose solution of 0.5% or more and less than 1%"}, "[14]": {"conditions": "sucrose solution of 1% or more and less than 10%"}, "[15]": {"conditions": "sucrose solution of 10% or more"}}, "note": "Where two headings read alike, the source gives them in different places.", "data": [{"smiles": "C[N+](C)(C)[C@@H](Cc1c[nH]c(=S)[nH]1)C(=O)[O-]", "note": "[ERG, Ergothioneine]", "values": [{"measurement": "ERG added at which all the panelists evaluated that the sweetness was enhanced", "setting": "[1]", "value": "≥ 0.5", "unit": "ppm"}, {"measurement": "ERG added at which all the panelists evaluated that the sweetness was enhanced", "setting": "[2]", "value": "≥ 0.5", "unit": "ppm"}, {"measurement": "ERG having a sweetness-enhancing effect, based on the stevia content", "setting": "[2]", "value": "≥ 0.05", "unit": "% by weight"}, {"measurement": "ERG content at which all the panelists evaluated that the sweetness was enhanced", "setting": "[3]", "value": "≥ 30", "unit": "ppm"}, {"measurement": "ERG content above which the degree of sweetness enhancement did not change", "setting": "[3]; 345 ppm judged equivalent by a majority of the panelists", "value": 145, "unit": "ppm"}, {"measurement": "ERG added at which all the panelists evaluated that the sweetness was enhanced", "setting": "[4]", "value": "≥ 0.5", "unit": "ppm"}, {"measurement": "ERG having a sweetness-enhancing effect, based on the glucose content", "setting": "[4]", "value": "≥ 0.0001", "unit": "% by weight"}, {"measurement": "ERG added at which three panelists evaluated that the sweetness was enhanced", "setting": "[5]", "value": "≥ 0.5", "unit": "ppm"}, {"measurement": "ERG having a sweetness-enhancing effect, based on the aspartame content", "setting": "[5]", "value": "≥ 0.0005", "unit": "% by weight"}, {"measurement": "ERG added at which all evaluated that the sweetness was enhanced", "setting": "[6]; [13]", "value": "≥ 0.5", "unit": "ppm"}, {"measurement": "amount of ERG having a sweetness-enhancing effect relative to the sucrose content", "setting": "[6]; [13]", "value": "≥ 0.01", "unit": "% by weight"}, {"measurement": "ERG added at which all evaluated that the sweetness was enhanced", "setting": "[6]; [14]", "value": "≥ 0.25", "unit": "ppm"}, {"measurement": "amount of ERG having a sweetness-enhancing effect relative to the sucrose content", "setting": "[6]; [14]", "value": "≥ 0.0025", "unit": "% by weight"}, {"measurement": "ERG added at which all evaluated that the sweetness was enhanced", "setting": "[6]; [15]", "value": "≥ 0.1", "unit": "ppm"}, {"measurement": "amount of ERG having a sweetness-enhancing effect relative to the sucrose content", "setting": "[6]; [15]", "value": "≥ 0.0001", "unit": "% by weight"}, {"measurement": "ERG concentration at which the sweetness-enhancing effect became constant", "setting": "[7]", "value": 100, "unit": "ppm"}, {"measurement": "solubility at 24 h", "setting": "[8]", "value": "< 100", "unit": "mg/mL"}, {"measurement": "ERG added at which all the panelists evaluated that the sweetness was enhanced", "setting": "[9]", "value": "≥ 0.5", "unit": "ppm"}, {"measurement": "ERG content at which all the panelists evaluated that the sweetness was enhanced", "setting": "[10]", "value": 5, "unit": "ppm"}, {"measurement": "ERG content at which all the panelists evaluated the enhancement of sweetness", "setting": "[11]; prepared soy milk", "value": 5, "unit": "ppm"}, {"measurement": "ERG content at which two panelists evaluated that the sweetness was enhanced", "setting": "[11]; prepared soy milk", "value": 3, "unit": "ppm"}, {"measurement": "creamy feel", "setting": "[11]; prepared soy milk containing 40 ppm of ERG", "value": "increased"}, {"measurement": "ERG added at which all the panelists evaluated that the sweetness was enhanced", "setting": "[12]", "value": "≥ 0.5", "unit": "ppm"}]}]}
